Measured values from ChEMBL document CHEMBL3734682, “PPL catalyzed four-component PASE synthesis of 5-monosubstituted barbiturates: Structure and pharmacological properties” (2015).
≈ marks a conversion by molar mass, not a printed value. Calls of active or inactive are those of the source. No cut-off for these calls is given here.

Assays:
DLA [1] = experiment: Induction of apoptosis in Swiss albino mouse DLA cells assessed as membrane blebbing at 25,50 and 100 ug/ml after 12 hrs by AO/EtBr staining based fluorescence microscopic analysis; type: functional, cell-based
DLA [2] = experiment: Induction of apoptosis in Swiss albino mouse DLA cells assessed as cell shrinkage at 25,50 and 100 ug/ml after 12 hrs by AO/EtBr staining based fluorescence microscopic analysis; type: functional
DLA [3] = experiment: Induction of apoptosis in Swiss albino mouse DLA cells assessed as nuclear fragmentation at 25,50 and 100 ug/ml after 12 hrs by AO/EtBr staining based fluorescence microscopic analysis; type: functional, cell-based
DLA [4] = experiment: Induction of apoptosis in Swiss albino mouse DLA cells assessed as chromatin condensation at 25,50 and 100 ug/ml after 12 hrs by AO/EtBr staining based fluorescence microscopic analysis; type: functional, cell-based
Bacillus subtilis = experiment: Antibacterial activity against clinical isolate Gram-positive Bacillus subtilis after 24 hrs by agar diffusion assay; type: functional
Proteus vulgaris = experiment: Antibacterial activity against clinical isolates Proteus vulgaris after 24 hrs by agar diffusion assay; type: functional
Staphylococcus aureus = experiment: Antibacterial activity against clinical isolates Staphylococcus aureus after 24 hrs by agar diffusion assay; type: functional
DLA [5] = experiment: Induction of apoptosis in Swiss albino mouse DLA cells assessed as cytoplasmic vacuoles at 50 and 100 ug/ml after 12 hrs by AO/EtBr staining based fluorescence microscopic analysis; type: functional, cell-based
Pseudomonas syringae = experiment: Antibacterial activity against clinical isolate Gram-negative Pseudomonas syringae after 24 hrs by agar diffusion assay; type: functional
Escherichia coli = experiment: Antibacterial activity against clinical isolates Escherichia coli after 24 hrs by agar diffusion assay; type: functional
DLA [6] = experiment: Induction of apoptosis in Swiss albino mouse DLA cells assessed as nuclear fragmentation at 50 and 100 ug/ml after 12 hrs by AO/EtBr staining based fluorescence microscopic analysis; type: functional, cell-based
DLA [7] = experiment: Induction of apoptosis in Swiss albino mouse DLA cells assessed as nucleolus pyknosis at 50 and 100 ug/ml after 12 hrs by AO/EtBr staining based fluorescence microscopic analysis; type: functional, cell-based
[8] = Induction of apoptosis in Swiss albino mouse DLA cells at 100 ug/ml after 12 hrs by AO/EtBr staining based fluorescence microscopic analysis; type: functional

Structure (SMILES)	Activity (DLA [1])	Activity (DLA [2])	Activity (DLA [3])	Activity (DLA [4])	MIC (Bacillus subtilis) [µg/mL]	MIC (Proteus vulgaris) [µg/mL]	MIC (Staphylococcus aureus) [µg/mL]	Activity (DLA [5])	MIC (Pseudomonas syringae) [µg/mL]	MIC (Escherichia coli) [µg/mL]	Activity (DLA [6])	Activity (DLA [7])	Activity [8] [%]
CCCC[C@H](c1c(C)[nH][nH]c1=O)c1c(O)[nH]c(=O)[nH]c1=O	Active	Active	Active	Active	–	–	–	–	–	–	–	–	–
Cc1[nH][nH]c(=O)c1[C@@H](c1cccnc1)c1c(O)[nH]c(=O)[nH]c1=O	Active	Active	Active	Active	100 (≈ 317 µM)	–	–	–	–	–	–	–	–
Cc1[nH][nH]c(=O)c1[C@@H](c1cccc(O)c1)c1c(O)[nH]c(=O)[nH]c1=O	Active	Active	Active	Active	25 (≈ 75.7 µM)	100 (≈ 303 µM)	100 (≈ 303 µM)	–	–	–	–	–	–
CCOC(=O)[C@H](c1c(C)[nH][nH]c1=O)c1c(O)[nH]c(=O)[nH]c1=O	Active	Active	Active	Active	100 (≈ 322 µM)	100 (≈ 322 µM)	100 (≈ 322 µM)	Active	100 (≈ 322 µM)	100 (≈ 322 µM)	Active	Active	23
CCC[C@H](c1c(C)[nH][nH]c1=O)c1c(O)[nH]c(=S)[nH]c1=O	Active	Active	Active	Active	100 (≈ 337 µM)	–	–	–	–	–	–	–	–
Cc1[nH][nH]c(=O)c1[C@@H](c1ccc(F)cc1)c1c(O)[nH]c(=S)[nH]c1=O	Active	Active	Active	Active	–	–	–	–	–	–	–	–	–
Cc1[nH][nH]c(=O)c1[C@@H](c1cccc([N+](=O)[O-])c1)c1c(O)[nH]c(=O)[nH]c1=O	Active	Active	Active	Active	100 (≈ 278 µM)	100 (≈ 278 µM)	–	Active	–	–	Active	Active	15
Cc1[nH][nH]c(=O)c1[C@@H](c1ccccc1)c1c(O)[nH]c(=S)[nH]c1=O	Active	Active	Active	Active	–	–	–	–	–	–	–	–	–
CCC[C@H](c1c(C)[nH][nH]c1=O)c1c(O)[nH]c(=O)[nH]c1=O	Active	Active	Active	Active	100 (≈ 357 µM)	–	–	Active	–	–	Active	Active	12
Cc1[nH][nH]c(=O)c1[C@@H](c1ccccc1)c1c(O)[nH]c(=O)[nH]c1=O	Active	Active	Active	Active	100 (≈ 318 µM)	100 (≈ 318 µM)	–	–	–	–	–	–	–
Cc1[nH][nH]c(=O)c1[C@@H](c1cccc(Br)c1)c1c(O)[nH]c(=O)[nH]c1=O	Active	Active	Active	Active	25 (≈ 63.6 µM)	100 (≈ 254 µM)	–	Active	100 (≈ 254 µM)	–	Active	Active	13
COc1ccc([C@H](c2c(C)[nH][nH]c2=O)c2c(O)[nH]c(=O)[nH]c2=O)cc1	Active	Active	Active	Active	100 (≈ 290 µM)	100 (≈ 290 µM)	–	Active	–	–	Active	Active	15
CC1(C)S[C@@H]2[C@H](NC(=O)[C@H](N)c3ccccc3)C(=O)N2[C@H]1C(=O)O [AMPICILLIN]	–	–	–	–	5 (≈ 14.3 µM)	5 (≈ 14.3 µM)	5 (≈ 14.3 µM)	–	5 (≈ 14.3 µM)	5 (≈ 14.3 µM)	–	–	–
Cc1[nH][nH]c(=O)c1[C@@H](c1ccc(Cl)cc1)c1c(O)[nH]c(=O)[nH]c1=O	Active	Active	Active	Active	25 (≈ 71.7 µM)	100 (≈ 287 µM)	–	Active	–	–	Active	Active	18
Cc1[nH][nH]c(=O)c1[C@@H](c1ccc(F)cc1)c1c(O)[nH]c(=O)[nH]c1=O	Active	Active	Active	Active	100 (≈ 301 µM)	100 (≈ 301 µM)	–	–	25 (≈ 75.2 µM)	–	–	–	–
Cc1[nH][nH]c(=O)c1[C@@H](c1ccccc1Cl)c1c(O)[nH]c(=O)[nH]c1=O	Active	Active	Active	Active	100 (≈ 287 µM)	100 (≈ 287 µM)	100 (≈ 287 µM)	–	100 (≈ 287 µM)	100 (≈ 287 µM)	–	–	–
NC[C@H]1O[C@H](O[C@H]2[C@H](O)[C@@H](O[C@H]3O[C@H](CO)[C@@H](O)[C@H](N)[C@H]3O)[C@H](N)C[C@@H]2N)[C@H](O)[C@@H](O)[C@@H]1O [KANAMYCIN]	–	–	–	–	5 (≈ 10.3 µM)	5 (≈ 10.3 µM)	80 (≈ 165 µM)	–	10 (≈ 20.6 µM)	5 (≈ 10.3 µM)	–	–	–
Cc1[nH][nH]c(=O)c1[C@@H](c1ccccc1[N+](=O)[O-])c1c(O)[nH]c(=O)[nH]c1=O	Active	Active	Active	Active	100 (≈ 278 µM)	100 (≈ 278 µM)	–	–	100 (≈ 278 µM)	100 (≈ 278 µM)	–	–	–
COc1ccccc1[C@H](c1c(C)[nH][nH]c1=O)c1c(O)[nH]c(=O)[nH]c1=O	Active	Active	Active	Active	100 (≈ 290 µM)	100 (≈ 290 µM)	100 (≈ 290 µM)	–	100 (≈ 290 µM)	100 (≈ 290 µM)	–	–	–
Cc1[nH][nH]c(=O)c1[C@@H](c1cccc([N+](=O)[O-])c1)c1c(O)[nH]c(=S)[nH]c1=O	Active	Active	Active	Active	–	–	–	–	–	–	–	–	–
Cc1[nH][nH]c(=O)c1[C@@H](c1ccc(Cl)cc1)c1c(O)[nH]c(=S)[nH]c1=O	Active	Active	Active	Active	100 (≈ 274 µM)	100 (≈ 274 µM)	–	–	–	–	–	–	–
Cc1[nH][nH]c(=O)c1[C@@H](c1ccc([N+](=O)[O-])cc1)c1c(O)[nH]c(=O)[nH]c1=O	Active	Active	Active	Active	100 (≈ 278 µM)	100 (≈ 278 µM)	–	Active	–	–	Active	Active	12
